Data set [1] relates to Escherichia coli (ATCC 25922). Format: cell-based. As to conditions: ATCC 25922. The method, then:
(§1) Minimum inhibition concentrations (MICs) were determined against Escherichia coli (ATCC 25922), Staphylococcus aureus (ATCC 25923), Klebsiella pneumoniae (ATCC 10031) and Pseudomonas aeruginosa (ATCC 27853). Also clinical strains of E. coli, K. pneumoniae, E. cloacae, P. aeruginosa, Serratia marcescens, Proteus mirabilis, S. pneumoniae, Acinetobacter baumannii, A. johnsonii and S. aureus were used for MICs assays. Additionally, clinical strains of yeast including Candida albicans, C. glabrata, C. parapsilosis and C. quillermondiae were used. The susceptibility of these microorganisms to Chain peptides were determined using micro broth dilution assay. Colonies of the respective microorganism from Muller Hinton (MH) agar plates incubated overnight were suspended in MH broth media and final concentration of microorganism was adjusted to 5.0×10^5 cfu/ml. An aliquot of 10 μl of each Chain peptide, or gentamicin, tetracycline as reference antibiotics were added in differing concentrations along with 90 μl of bacterial suspension to 96 well polypropylene plates and incubated at 37° C. for 20 to 24 hours. Concentrations of Chain peptides and reference antibiotics ranged from 0.125 to 128 μg/ml and the MICs were recorded as the lowest concentration with no visual growth of bacteria. Similarly, antifungal MICs were tested in Potato dextrose broth.

Data set [2] has as its system Klebsiella pneumoniae (ATCC 10031). Format: cell-based. As to conditions: ATCC 10031. The method, then: as §1
Data set [3] has as its system Pseudomonas aeruginosa (ATCC 27853). It counts as cell-based. To be noted: ATCC 27853. The method, then: as §1
Data set [4] relates to Staphylococcus aureus (ATCC 25923). Format: cell-based. To be noted: ATCC 25923. The method, then:
as §1

Data set [5] deals with Aspergillus flavus (DSM 1959). The data set can be described thus: Radial diffusion assay, antifungal, A. flavus. To be noted: 20 μg. Format: cell-based. The method, then: (§2) The radial diffusion assay (RDA) was carried out as described by Andersen et al. (2010). Briefly, 30 ml of 1/10 Muller-Hinton broth (MHB) supplemented with 1% agarose and 5.0×10^5 CFU/ml S. aureus or E. coli or K. pneumoniae, P. aeruginosa cells was poured into a single-well omnitray (Nunc) and overlaid with a TSP 96-well plate. One hundred μg of each synthesized peptide was tested. The peptides were also tested against Fusarium oxysporum and Verticillium dahliae, for which 1/3 potato dextrose agarose was used. To test the synergistic effect of peptides, each peptide was mixed in equimolar concentrations. Mix1 (met1-12), Mix2 (met3, 4 and 5), Mix3 (met 8, 9 and 10), Mix 4 (met11, 12) and Mix5 (8, 9, 10, 11, 12) were prepared and tested against E. coli and S. aureus. Gentamicin and vancomycin were included as positive controls for bacteria and amphotericin B was used as the control for fungi.
(§3) By using rational design techniques, we have designed variants of peptides by incorporating or replacing various amino acids in the original peptides. Thus, we have designed and modified Chain 100, Chain 200 and Chain 300 with tryptophan (W), arginine (R) and lysine (K) at various positions to improve antimicrobial activity (FIGS. 4a-c and 5a-c). In some peptides we have also used other amino acids such as Leucine (L), Cysteine (C), Isoleucine (I), Phenylalanine (F) and Alanine (A). For synthesis, 32 variants and 3 original peptides were selected based on the various parameters such as positive charge, aliphatic index and instability index. Peptides variants were tested by using radial diffusion assay against Escherichia coli (ATCC 25922), Staphylococcus aureus (ATCC 25923), Klebsiella pneumoniae (ATCC 10031) and Pseudomonas aeruginosa (ATCC 27853) (FIGS. 6a-c). The zone of inhibition ranged between 10-18 mm for Escherichia coli and Staphylococcus aureus, 6-18 mm & 8-18 mm for Pseudomonas aeruginosa and Klebsiella pneumonia respectively (Table 2). For Gentamicin it was between 22-24 mm. Antifungal activity was tested for promising antibacterial peptides (Chains 104, 105, 109, 201, 204, 306, 307, 308, 310) against Aspergillus flavus (DSM 1959) and Penicillium chrysogenum (DSM 1075). All these peptides has activity at a concentration of 20 μg, Amphotericin B was used as a positive control at 20 μg (FIG. 7).

For data set [6], the system named is Penicillium chrysogenum (DSM 1075). Put plainly: Radial diffusion assay, antifungal, P. chrysogenum. To be noted: 20 μg. Format: cell-based. The method, then: as §2, §3
Data set [7] deals with human erythrocytes. Format: cell-based. The method, then: In hemolysis assays, the ability of peptides at 128 μg/ml concentration to lyse human erythrocytes to release hemoglobin was measured. The peptides described here preferably have low hemolytic activity (0.2 to 3.8% hemolysis) in mammal body. […] These peptides are useful as antimicrobial drugs as they show little or no side effects at concentrations needed to kill bacteria.
Minimum inhibition concentrations (MICs) were tested by microbroth dilution method and Chain 104, 105 and 109 inhibited the growth of Escherichia coli (ATCC 25922), Staphylococcus aureus (ATCC 25923), Klebsiella pneumoniae (ATCC 10031) and Pseudomonas aeruginosa (ATCC 27853) between 1-8 μg/ml respectively (Tables 3a, 3b and 3c). The membranolytic activities of the peptides were tested by measuring the release of hemoglobin from erythrocytes of fresh blood donated by voluntiers. Hemoglobin levels were determined spectrometrically by taking OD at 540 nm by following the protocol of Schmidtchen et al., 2011.

Data set [8] concerns 4 ATCC bacterial strains. The data set can be described thus: Effect of NaCl on MIC. It counts as cell-based. As to conditions: 200 mM NaCl in MH medium.
Protocol: (§4) Thermal stability was evaluated by diluting peptides to the concentration of 2 mg/ml in PBS buffer (pH 7.4) and incubating at different temperatures, such as +4° C., 25° C. (RT), 37° C. and 45° C., peptides stored at −20° C. were used as control. […] Peptides were also tested by diluting them at different pH values starting from pH 4 to 9. The effect of NaCl on the antimicrobial activity was tested by adding different concentrations (50, 100 and 200 mM) of NaCl to MH medium and the minimum inhibitory concentrations were tested against 4 ATCC bacterial strains.
The subject of data set [9] is E. coli. The data set can be described thus: Transmission electron microscopy of treated E. coli. Format: cell-based, Escherichia coli. To be noted: 10 μg/ml, 37° C., 1 h. The method, then:
E. coli and S. aureus were grown to mid-exponential phase and diluted in Muller Hinton broth (MHB) medium to a cell density of 0.1 by taking absorbance at 600 nm and incubated at 37° C. for 1 h with 10 μg/ml Chain peptides. After incubation, an equal volume of 2% glutaraldehyde in 0.1 M phosphate buffer was added and the cells were pelleted by centrifugation at 5000 rpm for 2 minutes, and the cell pellet was fixed with 1% glutaraldehyde in 0.1 M phosphate. Cells were post-fixed with osmium tetroxide, dehydrated using increasing concentrations of acetone or alcohol, and embedded in plastic resin (Epon). Ultrathin sections (70-80 nm) were post-stained with uranyl acetate and lead citrate before observation with TEM. Microscopy was performed with a Tecnai G2 Spirit 120 kV TEM with Veleta and Quemesa CCD cameras.

The subject of data set [10] is gram positive and negative bacteria. Put plainly: MIC by micro broth dilution, summary over the strains tested. Format: cell-based. The method, then:
as §1
In general terms: Broth dilution looks for growth in wells or tubes with falling amounts of substance.

For data set [11] the following is noted: +4, 25, 37 and 45° C., 14 days, PBS pH 7.4, RDA with 20 μg.
Protocol: as §4
For data set [12] the following is noted: pH 4-9, RDA.
Protocol: as §4
The subject of data set [13] is S. aureus. The data set can be described thus: Antibacterial activity analysis of En-MAP1 protein. It counts as cell-based, Staphylococcus aureus. The method, then: Both folded and unfolded proteins were tested for antibacterial activity against S. aureus by pipetting 10 μg of protein on the S. aureus culture on an LB plate. The activity was also tested in folded and unfolded protein digested with trypsin in 0.01% acetic acid at concentrations of 30 and 60 μg/ml.

In brackets after ≈: the same amount, converted by molar mass. Entries after “also recorded” stand apart in the source; their conditions may differ. Where a SMILES comes first, the peptide text is derived from it.

Turning to `CC[C@H](C)[C@H](NC(=O)[C@H](CCCCN)NC(=O)[C@H](CCCNC(=N)N)NC(=O)[C@H](Cc1c[nH]c2ccccc12)NC(=O)[C@H](CCCNC(=N)N)NC(=O)[C@@H](NC(=O)[C@@H](NC(=O)[C@H](CCCNC(=N)N)NC(=O)[C@@H](N)Cc1c[nH]c2ccccc12)[C@@H](C)CC)C(C)C)C(=O)N[C@@H](CCCCN)C(=O)N[C@@H](CCCNC(=N)N)C(=O)O` [Chain209] (H-WRIVRWRKIKR-OH; N-terminus and C-terminus assumed), in data set [1], the “Minimum inhibitory concentration, Escherichia coli (ATCC 25922)” value is 64 µg/mL (≈ 40.1 µM). The “Minimum inhibitory concentration, Klebsiella pneumoniae (ATCC 10031)” value in [2] was greater than 128 µg/mL. Further, in data set [3], the “Minimum inhibitory concentration, Pseudomonas aeruginosa (ATCC 27853)” value is greater than 128 µg/mL. In addition, the “Minimum inhibitory concentration, Staphylococcus aureus (ATCC 25923)” value in data set [4] is greater than 128 µg/mL.
In the case of `CC(C)C[C@H](NC(=O)[C@H](CC(C)C)NC(=O)[C@H](Cc1ccccc1)NC(=O)[C@H](Cc1c[nH]c2ccccc12)NC(=O)[C@H](CCCCN)NC(=O)[C@H](CC(C)C)NC(=O)[C@@H](N)CCCNC(=N)N)C(=O)N[C@@H](Cc1ccccc1)C(=O)N[C@@H](CCCNC(=N)N)C(=O)N[C@@H](CCCCN)C(=O)N[C@@H](CCCNC(=N)N)C(=O)O` [Chain308] (H-RLKWFLLFRKR-OH; N-terminus and C-terminus assumed), the “antifungal activity against Aspergillus flavus” value in [5] is “has activity; also recorded: particularly active”. Further, in [6], the “antifungal activity against Penicillium chrysogenum” value is “has activity; also recorded: particularly active”. For the same molecule, in [7], the “side effects to humans as tested by hemolysis assay” value is given as “little side effects”. Further, in data set [8], the “increase in MIC values with NaCl” value came to 2 fold. For the same molecule, in data set [9], the “TEM observation of E. coli cells” value is recorded as “almost all E. coli cells had lost their rod-shaped structural integrity”. In [10], the “activity against the four ATCC strains” value is “very active”. For the same molecule, the “thermostability (antibacterial activity kept after incubation)” value in data set [11] is “not hindered by pH or temperature even upto 45 °C for over 14 days”. The “pH stability (zone of inhibition)” value in data set [12] is listed as “not hindered by pH”.
For the molecule `CC(C)C[C@H](NC(=O)[C@H](CCCNC(=N)N)NC(=O)[C@H](Cc1c[nH]c2ccccc12)NC(=O)[C@H](CCCNC(=N)N)NC(=O)[C@H](CCCCN)NC(=O)[C@H](CC(C)C)NC(=O)[C@@H](N)CCCNC(=N)N)C(=O)N[C@@H](Cc1ccccc1)C(=O)N[C@@H](CCCNC(=N)N)C(=O)N[C@@H](CCCCN)C(=O)N[C@@H](CCCNC(=N)N)C(=O)O` [Chain306] (H-RLKRWRLFRKR-OH; N-terminus and C-terminus assumed), in [5], the “antifungal activity against Aspergillus flavus” value is “has activity; also recorded: particularly active”. For the same molecule, the “antifungal activity against Penicillium chrysogenum” value in [6] is given as “has activity; also recorded: particularly active”. In [8], the “increase in MIC values with NaCl” value came to 2 fold. Further, in data set [10], the “activity against the four ATCC strains” value is “very active”. Besides, the “thermostability (antibacterial activity kept after incubation)” value in data set [11] was “not hindered by pH or temperature even upto 45 °C for over 14 days”. For the same molecule, the “pH stability (zone of inhibition)” value in data set [12] was “not hindered by pH”.

B1: En-MAP1: protein of 549 amino acids from an endophyte of Empetrum nigrum, GenBank KC466596 (protein, listed as Empetrum nigrum)
chain: MRLVAHPVPDAPLYALMIKACSMGIPQPNDNLWKPRNPLLAKEEKTSKRGRTAPDTERALDLFREMTLRYNIRPTAEVYTAIIAACVKRDDMYDKGFGLFKKMVELERNRMSSEGHDSTSFAPTRATYNALLRGCARNKDLLRARWILAEMLRTAQAKWQEFMEKSKKGEEGVQEWELLEVEEMRPDTNTMAFLFYTYASHTTSSKAVPETEGKKELEGKAEERASEVTSVSPVSEPPEPMDESKLVYSLPTSSQAILREVTSLLDRIKSDQGQQSNLLSSVQINSKLLNSYIAVLSAHCRSSQVVERISEVVVGTKENPKSLFEETGTSVNGYTCFTVIDACGMMEHSPDTYHLACEMWQRWLSLVENATFHRENPLKAKEIGLDSRTISDCWSAMIRLHAKYNQVDEAMKLVHEFARLYPPASLFNSLTFEPSSTSSSSLSPRKGVQEISPLFSSTSLTHSIRGRDISRIQNTMSQDPTLQFRAVQILHLRLVELETRPKDLAYLSWLLKSYEHQLQPKRPKSLQGDLFTSRQAAYNRIVQQRTSSR
As to B1, the “antibacterial activity against S. aureus, trypsin digest of folded protein” value in data set [13] (folded full protein digested with trypsin) is “antibacterial activity was observed for up to two hours after digestion”. Also, the “antibacterial activity against S. aureus” value in data set [13] (folded protein or expressed fragments) is listed as “no activity was observed”. For the same molecule, in data set [13] (unfolded protein digested with trypsin), the “antibacterial activity against S. aureus, trypsin digest of unfolded protein” value is listed as “No activity was detected”.

Source of the values: patent US11096985B2, “Antimicrobial peptides, their variants and uses” (priority 2015, dated 2021).
